One series deals with TGFβRII (Homo sapiens, UniProt P37173). Kind of series: Autophosphorylation kinase assay.
In a further series the test system is pSMAD in human PBMCs. Set-up: method as in PMID 17453744. The note with it: cited from earlier work.
For series [1], the system named is CEREP diversity panel, 65 targets. Kind of series: CEREP diversity panel. The following applies: at 10 μM, duplicate; data not shown.
Series [2] relates to murine NK and CD8+ T cells. Kind of series: TGFβ suppression of murine NK and CD8+ T cell cytokine secretion. The series is classed as cell-based, BALB/c mice. The following applies: TGFβ1 10 ng/ml, 0.1 μM to 10 μM, ELISA. How it is done:
Mouse NK cells and CD8^+ T cells were purified from female BALB/C mouse splenocytes by magnetic antibody sorting (Miltenyi Biotec) following the manufacturer's instructions. After isolation, the cells were re-suspended separately in complete media (RPMI1640, 5% FBS, 10 mM HEPES, 1×NEAA, 1×L-Glu, sodium pyruvate, 1×Penn/Strep, 0.055 mM βME, 50 U/ml IL2) and plated in flat 96-well plates at 37°C for 5-7 days at a density of 5 × 10^4/well, in triplicate, and stimulated with Treg Suppression Inspector beads (Miltenyi Biotec, Cat# 130-093-627). Cells were cultured with or without TGFβ1 at 10 ng/ml. […] Cytokine release in supernatants was measured by ELISA (R&D, mouse Granzyme B: DY1865; mouse INFγ:3321-1H-6). One-way ANOVA with Dunnett's test was used to compare the TGFβ+Gal treatments to the TGFβ+DMSO treatment.

The subject of series [3] is pSMAD in 13762 rat mammary carcinoma tumor. Kind of series: 13762 rat tumor model, pSMAD in tumor tissue. In kind it is in vivo, Fischer 344 rats. The note with it: Table 4, read-out: IC50 of pSMAD (%CV). How it is done: Fischer 344 rats from Taconic Farms weighing 150 to 160 grams were acclimatized for 1 week prior to study initiation and had ad libitum access to food. Rats were shaved in the implant area then given a subcutaneous flank injection of 5 × 10^6 13762 rat mammary carcinoma cells in a 1:1 (v/v) mixture with Matrigel in media. […] Tumor, PBMCs, and plasma were collected at 0.5, 1, 1.5, 2, 4, 8, 16, and 24 hours for further analysis.
For correlation of pSMAD modulation in 13762 rat mammary carcinoma tumors and PBMCs, data were normalized using an analysis of co-variance of log pSMAD versus log tSMAD and treatment group. The slope (b) from this analysis was used to normalize the pSMAD values using pSMAD/(tSMAD)^b. Percent inhibition was calculated by the following formula: 100-(y/x)*100 where y = normalized pSMAD value and x = mean normalized pSMAD in the vehicle control. Linear correlation was used to compare tumor and PBMC measurements. In addition, using a cutoff of 50%, a 2 × 2 contingency table analysis was performed using Fisher's exact test.

A further series in a line: in vivo. The following applies: female, athymic nu/nu, mouse, plasma, po, 75 mg/kg.
On the set-up of series [4]: method as in earlier work. The following applies: patients with pancreas cancer; cited from earlier work.
For series [5] the following is noted: clinical; cited from earlier work.

Chain of TGFβRII (P37173 23-567): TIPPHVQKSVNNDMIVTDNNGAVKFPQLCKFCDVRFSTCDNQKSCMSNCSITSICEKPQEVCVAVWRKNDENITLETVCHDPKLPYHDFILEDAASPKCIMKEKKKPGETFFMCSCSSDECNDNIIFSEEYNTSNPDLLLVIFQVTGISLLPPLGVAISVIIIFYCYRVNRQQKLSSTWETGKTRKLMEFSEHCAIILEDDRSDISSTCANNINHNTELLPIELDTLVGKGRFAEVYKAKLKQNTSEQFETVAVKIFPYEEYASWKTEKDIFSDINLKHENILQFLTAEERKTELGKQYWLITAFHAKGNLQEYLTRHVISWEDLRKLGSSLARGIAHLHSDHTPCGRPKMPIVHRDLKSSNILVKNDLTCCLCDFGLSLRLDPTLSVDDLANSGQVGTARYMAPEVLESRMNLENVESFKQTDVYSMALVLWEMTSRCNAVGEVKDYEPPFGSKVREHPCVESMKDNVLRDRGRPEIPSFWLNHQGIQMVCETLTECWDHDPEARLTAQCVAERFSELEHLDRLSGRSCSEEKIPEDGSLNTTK
Procedure for in vivo: (§1) For in vivo measurement of tumor cell pSMAD activity, tumors were harvested from mice at the indicated time points post-treatment, snap frozen in liquid nitrogen, then pulverized in lysis buffer [EDTA 5 mM, EGTA 5 mM, sodium pyrophosphate 30 mM, sodium chloride 6.7 mM, sodium fluoride 50 mM, and 1% triton in water, pH 7.4 with protease and phosphatase inhibitors (Sigma, p8340, p5726, p0044) and sodium orthovanadate 2.5 mM]. Protein concentration was estimated with DC protein assay kit (BioRad).
(§2) Percent inhibition of normalized pSMAD2 levels was calculated by first determining the ratio of tSMAD to pSMAD values for the vehicle group. […] Percent inhibition for compound treated groups was determined relative to the minimum pSMAD inhibition of the vehicle group using the formula: [(100- (normalized pSMAD in the experimental treatment group/normalized pSMAD in the vehicle treated group)]. IC50 of pSMAD inhibition was calculated for the data using non-linear regression to fit the standard four parameter logistic model using GraphPad Prism 6.
(§3) Female athymic nu/nu mice or immune competent syngenic BALB/c mice (Charles River or Taconic Farms, respectively, 22 to 28 grams) were maintained in microisolator cages, received food and water ad libitum, and were quarantined for 1 week before experimental manipulation. Sub-confluent Calu6 human non-small cell lung cancer (NSCLC) cells were injected subcutaneously in the flank of nude mice (1x 10^7cells/per animal) in 0.2 mL of culture medium mixed with Matrigel (BD Biosciences, 1:1 v/v). EMT6-LM2 murine triple negative breast cancer tumor cells (5 × 10^5 cells/per animal in the absence of matrigel) were implanted on the flank of BALB/c mice. EMT6-LM2 cells were generated from parental EMT6 cells which were passaged twice from spontaneous lung metastases (LM) following subcutaneous growth. When the tumor volume reached ~250 mm^3, mice were randomized and separated into treatment groups.
(§4) Tumors and plasma were collected 2 hours post dosage for analysis of pSMAD and compound levels.
(§5) Tumors and plasma were collected at the indicated time points (0.5, 1, 1.5, 2, 4, 8, and 16 hours) for analysis of pSMAD and compound levels.
(§6) Percent target inhibition was calculated as described above then was modeled as a function of either dose or plasma concentration.
Procedure for pSMAD in Calu6 tumors: as §1, §2, §3, §4, §5, §6

With `Cc1cccc(-c2nn3c(c2-c2ccnc4ccc(C(N)=O)cc24)CCC3)n1.O` [galunisertib, 4-[2-(6-methylpyridin-2-yl)-5,6-dihydro-4H-pyrrolo[1,2-b]pyrazol-3-yl]quinoline-6-carboxamide monohydrate], the results for the 50% inhibitory concentration (IC50) (at TGFβRII; in series [3]) were 2000 nM and 719 nM, respectively. Further, in the series on pSMAD in human PBMCs, the “pSMAD in human PBMCs ex vivo” value was “inhibit pSMAD”. Moreover, the “inhibition against all 65 targets” value in series [1] was below 25%. Besides, the “TGFβ1 suppression of IFNγ and granzyme B secretion” value in [2] is “prevented the suppression of IFNγ and granzyme B secretion”. Moreover, the “pSMAD inhibition at maximum plasma exposure” value in the series on pSMAD in Calu6 tumors (Calu6, at 30 minutes) is listed as ~ 70%. Further, in the series with pSMAD in Calu6 tumors (Calu6, single oral dose, tumors 2 hours post dosage), the “TED50, total effective dose to inhibit 50% pSMAD” value is 15.6 mg/kg. In addition, the maximum plasma exposure entry with pSMAD in Calu6 tumors (Calu6 time course, single oral dose) is recorded as “up to 6 μM”. Also, the Tmax in “in vivo” was 30 min. The “clinical outcome versus gemcitabine, phase II” value in series [4] is recorded as “superiority over gemcitabine”. Besides, in series [5], the “tolerability as oral cancer therapy” value is listed as “well-tolerated”.
